Test results: PubChem BioAssay (NCI)
Values joined by “and” are separate entries in the source; they are usually repeats but may differ in a detail not shown here. Equal values may be shown once.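 Exposure lasted 48 hours, with cells grown in 96-well plates and compounds tested at five concentrations. The concentration for 50% growth inhibition is given as GI50. TGI marks complete inhibition of growth.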

Legend:
Experiment in all cases: NCI tumour cell line growth inhibition, 48 h
SF-268 CNS = system: SF-268 CNS
HOP-92 NSCLC = system: HOP-92 NSCLC
T-47D breast = system: T-47D breast
SK-MEL-2 melanoma = system: SK-MEL-2 melanoma
UACC-62 melanoma = system: UACC-62 melanoma
HL-60(TB) leukemia = system: HL-60(TB) leukemia
NCI/ADR-RES ovarian = system: NCI/ADR-RES ovarian
SK-MEL-28 melanoma = system: SK-MEL-28 melanoma
ACHN renal = system: ACHN renal
EKVX NSCLC = system: EKVX NSCLC

| SMILES | GI50 (SF-268 CNS) | TGI (SF-268 CNS) | GI50 (HOP-92 NSCLC) | TGI (HOP-92 NSCLC) | GI50 (T-47D breast) | TGI (T-47D breast) | GI50 (SK-MEL-2 melanoma) | TGI (SK-MEL-2 melanoma) | GI50 (UACC-62 melanoma) | TGI (UACC-62 melanoma) | GI50 (HL-60(TB) leukemia) | TGI (HL-60(TB) leukemia) | GI50 (NCI/ADR-RES ovarian) | TGI (NCI/ADR-RES ovarian) | GI50 (SK-MEL-28 melanoma) | TGI (SK-MEL-28 melanoma) | GI50 (ACHN renal) | TGI (ACHN renal) | GI50 (EKVX NSCLC) | TGI (EKVX NSCLC) |
| --- | --- | --- | --- | --- | --- | --- | --- | --- | --- | --- | --- | --- | --- | --- | --- | --- | --- | --- | --- | --- |
| COc1cc2nc(SCc3cc(OC)c(OC)c(OC)c3)n(Cc3ccccc3)c(=O)c2cc1OC | 5.28 µM | 47.4 µM | 1.79 µM | 8.97 µM | 4.54 µM | > 65.9 µM | 2.92 µM | 16.8 µM | 3.22 µM | 50.5 µM | 2.14 µM | > 100 µM | 2.33 µM | 26.6 µM | 3.88 µM | > 100 µM | 4.83 µM | 24.1 µM | – | – |
| CCOC(=O)Nc1nc2ccc(OC)cc2s1 | > 100 µM | > 100 µM | > 100 µM | > 100 µM | > 100 µM | > 100 µM | > 100 µM | > 100 µM | > 100 µM | > 100 µM | > 100 µM | > 100 µM | > 100 µM | > 100 µM | > 100 µM | > 100 µM | > 100 µM | > 100 µM | – | – |
| COc1ccc(S(=O)(=O)N2CCN(C(=O)c3ccc(-c4ccccc4)cc3)CC2C(=O)NO)cc1 (centres undefined) | – | – | > 100 µM | > 100 µM | – | 12.5 µM and > 100 µM | – | – | – | 12.5 µM and > 100 µM | 16.8 µM | 38.1 µM | – | – | – | 12.5 µM and > 100 µM | 3.28 µM and 20.6 µM | 12.5 µM and 99.5 µM | 1.61 µM | 7.02 µM |
| O=C(/C=C/C12c3ccccc3C(c3ccccc31)C1C(=O)NC(=O)C12)c1ccc(Cl)cc1Cl (centres undefined) | 1.79 µM | 3.44 µM | 1.5 µM | 3.3 µM | 2.48 µM | 9.59 µM | 1.9 µM | 3.62 µM | 1.67 µM | 3.18 µM | – | – | – | – | 1.78 µM | 3.27 µM | 1.76 µM | 3.15 µM | 1.86 µM | 4.16 µM |
| S=c1snc2n1CCN2 | > 100 µM | > 100 µM | > 100 µM | > 100 µM | 0.85 µM | 37.4 µM | – | – | 95.5 µM | > 100 µM | 48 µM | > 100 µM | > 100 µM | > 100 µM | 64.4 µM | > 100 µM | > 100 µM | > 100 µM | > 100 µM | > 100 µM |
| Cc1nc(N)nc2c1CCC(O)S2 (centres undefined) | 4.84 µM | 25.6 µM | 2.54 µM | 12.3 µM | 5.25 µM | 30.2 µM | – | – | 11.3 µM | 25.8 µM | 11.4 µM | 33 µM | > 100 µM | > 100 µM | 6.11 µM | 28.9 µM | 22 µM | > 100 µM | 24.8 µM | 93.2 µM |
